The values that follow come from PubChem BioAssay AID1259407 (Chemical Carcinogenesis Research Information System (CCRIS), 2018).

The subject of the data set is CCRIS mutagenicity, Ames/micronucleus/aberration tests. Description: CCRIS mutagenicity studies.
The mark [1] stands for this setting: Test System: AMES SALMONELLA TYPHIMURIUM, Strain/Indicator: TA100, Metabolic Activation: RAT, LIVER, S-9, AROCLOR 1254, Method: PREINCUBATION
Where [2] appears, read: Test System: AMES SALMONELLA TYPHIMURIUM, Strain/Indicator: TA98, Metabolic Activation: NONE, Method: PREINCUBATION
Setting [3] is: Test System: AMES SALMONELLA TYPHIMURIUM, Strain/Indicator: TA100, Metabolic Activation: NONE, Method: PREINCUBATION
[4] abbreviates: Test System: AMES SALMONELLA TYPHIMURIUM, Strain/Indicator: TA100, Metabolic Activation: NONE, Method: STANDARD PLATE.

Active and inactive are the calls of the source. The rule behind the calls is not given here.

In the case of `CCCCOC(=O)/C=C\C(=O)OCCCC`, the mutagenic call is, setting by setting: (Test System: AMES SALMONELLA TYPHIMURIUM, Strain/Indicator: TA97A, Metabolic Activation: NONE) “inactive; negative”; (Test System: AMES SALMONELLA TYPHIMURIUM, Strain/Indicator: TA97A, Metabolic Activation: RAT, LIVER, S-9, AROCLOR 1254) “inactive; negative”; (Test System: AMES SALMONELLA TYPHIMURIUM, Strain/Indicator: TA98, Metabolic Activation: NONE) “inactive; negative”; (Test System: AMES SALMONELLA TYPHIMURIUM, Strain/Indicator: TA98, Metabolic Activation: RAT, LIVER, S-9, AROCLOR 1254) “inactive; negative”; (Test System: AMES SALMONELLA TYPHIMURIUM, Strain/Indicator: TA100, Metabolic Activation: NONE) “inactive; negative”; (Test System: AMES SALMONELLA TYPHIMURIUM, Strain/Indicator: TA100, Metabolic Activation: RAT, LIVER, S-9, AROCLOR 1254) “inactive; negative”. Also, the mutagenic call (Test System: AMES SALMONELLA TYPHIMURIUM, Strain/Indicator: TA102, Metabolic Activation: NONE) was “inactive; negative” and the mutagenic call (Test System: AMES SALMONELLA TYPHIMURIUM, Strain/Indicator: TA102, Metabolic Activation: RAT, LIVER, S-9, AROCLOR 1254) is “inactive; negative”.

Take `Cc1cc2ccccc2c2cc3c(cc12)[C@H](O)[C@@H](O)C=C3`: the mutagenic call under setting [1] was “active; positive”.

For the compound `Nc1nccc2[nH]c3ccccc3c12`, the mutagenic call (Test System: AMES SALMONELLA TYPHIMURIUM, Strain/Indicator: TA1537, Metabolic Activation: NONE, Method: PREINCUBATION) is “active; positive”.

On to `CC(=O)OCc1ccccc1[N+](=O)[O-]`, for which the mutagenic call is “inactive; negative” under setting [2], “inactive; negative” under setting [3] and “inactive; negative” under setting [1].

On to `COC(=O)C1Cc2c([nH]c3ccc([N+](=O)[O-])cc23)C(C)N1N=O` (centres undefined), for which the mutagenic call is “active; positive” (Test System: AMES SALMONELLA TYPHIMURIUM, Strain/Indicator: TA98(NR), Metabolic Activation: NONE, Method: STANDARD PLATE) and “inactive; negative” (Test System: AMES SALMONELLA TYPHIMURIUM, Strain/Indicator: TA98(NR), Metabolic Activation: RAT, LIVER, S-9, AROCLOR 1254, Method: STANDARD PLATE).

Turning to `c1ccc2c(c1)ccc1ccc3ccsc3c12`, the mutagenic call by setting is: (Test System: Ames Salmonella typhimurium, Strain/Indicator: TA98, Metabolic Activation: None, Method: Plate incorporation) “active; positive”; (Test System: Ames Salmonella typhimurium, Strain/Indicator: TA100, Metabolic Activation: None, Method: Plate incorporation) “active; positive”; (Test System: Ames Salmonella typhimurium, Strain/Indicator: TA1040, Metabolic Activation: None, Method: Plate incorporation) “inactive; negative”.

Take `Cc1ccc(C)o1`: the mutagenic call by setting is: (Test System: AMES SALMONELLA TYPHIMURIUM, Strain/Indicator: TA97, Metabolic Activation: HAMSTER, LIVER, S-9, AROCLOR 1254 (10%), Method: PREINCUBATION) “inactive; negative”; (Test System: AMES SALMONELLA TYPHIMURIUM, Strain/Indicator: TA97, Metabolic Activation: HAMSTER, LIVER, S-9, AROCLOR 1254 (30%), Method: PREINCUBATION) “inactive; negative”; (Test System: AMES SALMONELLA TYPHIMURIUM, Strain/Indicator: TA97, Metabolic Activation: NONE, Method: PREINCUBATION) “inactive; negative”; (Test System: AMES SALMONELLA TYPHIMURIUM, Strain/Indicator: TA97, Metabolic Activation: RAT, LIVER, S-9, AROCLOR 1254 (10%), Method: PREINCUBATION) “inactive; negative”; (Test System: AMES SALMONELLA TYPHIMURIUM, Strain/Indicator: TA97, Metabolic Activation: RAT, LIVER, S-9, AROCLOR 1254 (30%), Method: PREINCUBATION) “inactive; negative”; (Test System: AMES SALMONELLA TYPHIMURIUM, Strain/Indicator: TA98, Metabolic Activation: HAMSTER, LIVER, S-9, AROCLOR 1254 (10%), Method: PREINCUBATION) “inactive; negative”. Also, the mutagenic call (Test System: AMES SALMONELLA TYPHIMURIUM, Strain/Indicator: TA98, Metabolic Activation: HAMSTER, LIVER, S-9, AROCLOR 1254 (30%), Method: PREINCUBATION) is “inactive; negative”; the mutagenic call under setting [2] was “inactive; negative”; the mutagenic call (Test System: AMES SALMONELLA TYPHIMURIUM, Strain/Indicator: TA98, Metabolic Activation: NONE, Method: STANDARD PLATE) is “inactive; negative”; the mutagenic call (Test System: AMES SALMONELLA TYPHIMURIUM, Strain/Indicator: TA98, Metabolic Activation: RAT, LIVER, S-9, AROCLOR 1254 (10%), Method: PREINCUBATION) is “inactive; negative”; the mutagenic call (Test System: AMES SALMONELLA TYPHIMURIUM, Strain/Indicator: TA98, Metabolic Activation: RAT, LIVER, S-9, AROCLOR 1254 (30%), Method: PREINCUBATION) is “inactive; negative”; the mutagenic call (Test System: AMES SALMONELLA TYPHIMURIUM, Strain/Indicator: TA98, Metabolic Activation: S-9, Method: STANDARD PLATE) is “inactive; negative”. In addition, the mutagenic call was “inactive; negative” (Test System: AMES SALMONELLA TYPHIMURIUM, Strain/Indicator: TA100, Metabolic Activation: HAMSTER, LIVER, S-9, AROCLOR 1254 (10%), Method: PREINCUBATION); “inactive; negative” (Test System: AMES SALMONELLA TYPHIMURIUM, Strain/Indicator: TA100, Metabolic Activation: HAMSTER, LIVER, S-9, AROCLOR 1254 (30%), Method: PREINCUBATION); “inactive; negative” under setting [3]; “inactive; negative” under setting [4]; “inactive; negative” (Test System: AMES SALMONELLA TYPHIMURIUM, Strain/Indicator: TA100, Metabolic Activation: RAT, LIVER, S-9, AROCLOR 1254 (10%), Method: PREINCUBATION); “inactive; negative” (Test System: AMES SALMONELLA TYPHIMURIUM, Strain/Indicator: TA100, Metabolic Activation: RAT, LIVER, S-9, AROCLOR 1254 (30%), Method: PREINCUBATION). In addition, the mutagenic call (Test System: AMES SALMONELLA TYPHIMURIUM, Strain/Indicator: TA100, Metabolic Activation: S-9, Method: STANDARD PLATE) is “inactive; negative”; the mutagenic call (Test System: AMES SALMONELLA TYPHIMURIUM, Strain/Indicator: TA1535, Metabolic Activation: HAMSTER, LIVER, S-9, AROCLOR 1254 (10%), Method: PREINCUBATION) was “inactive; negative”; the mutagenic call (Test System: AMES SALMONELLA TYPHIMURIUM, Strain/Indicator: TA1535, Metabolic Activation: HAMSTER, LIVER, S-9, AROCLOR 1254 (30%), Method: PREINCUBATION) was “inactive; negative”; the mutagenic call (Test System: AMES SALMONELLA TYPHIMURIUM, Strain/Indicator: TA1535, Metabolic Activation: NONE, Method: PREINCUBATION) was “inactive; negative”; the mutagenic call (Test System: AMES SALMONELLA TYPHIMURIUM, Strain/Indicator: TA1535, Metabolic Activation: RAT, LIVER, S-9, AROCLOR 1254 (10%), Method: PREINCUBATION) is “inactive; negative”; the mutagenic call (Test System: AMES SALMONELLA TYPHIMURIUM, Strain/Indicator: TA1535, Metabolic Activation: RAT, LIVER, S-9, AROCLOR 1254 (30%), Method: PREINCUBATION) was “inactive; negative”.

On to `ClC/C=C\CCl`, for which the mutagenic call is “active; positive” (Test System: AMES SALMONELLA TYPHIMURIUM, Strain/Indicator: TA98, Metabolic Activation: HAMSTER, LIVER, S-9, AROCLOR 1254 (10%), Method: STANDARD PLATE); “active; positive” (Test System: AMES SALMONELLA TYPHIMURIUM, Strain/Indicator: TA100, Metabolic Activation: HAMSTER, LIVER, S-9, AROCLOR 1254 (10%), Method: STANDARD PLATE); “active; positive” under setting [4]; “active; positive” (Test System: AMES SALMONELLA TYPHIMURIUM, Strain/Indicator: TA100, Metabolic Activation: RAT, LIVER, S-9, AROCLOR 1254 (10%), Method: STANDARD PLATE); “active; positive. reevaluation of results: positive” (Test System: MOUSE LYMPHOMA, Strain/Indicator: L5178Y (TK+/TK-), Metabolic Activation: NONE, Method: SUSPENSION/PLATE); “active; positive. reevaluation of results: positive” (Test System: MOUSE LYMPHOMA, Strain/Indicator: L5178Y (TK+/TK-), Metabolic Activation: RAT, LIVER, S-9, AROCLOR 1254, Method: SUSPENSION/PLATE).

As for `CC1(c2ccc(Br)cc2)CO1` (centres undefined), the mutagenic call under setting [3] was “inactive; negative”.
